Test results as given in patent US7435438B1, “Disinfectant and method of use” (Pure BioScience, priority 2003, dated 2008).

Assays:
[1] = test system: Staphylococcus aureus ATCC 6538
[2] = test system: pathogenic bacterial populations, biofilms
[3] = test system: Enterococcus facium (VRE) ATCC 700221; conditions: 30 ppm
[4] = test system: Proprionibacterium acnes ATCC 6921; conditions: 30 ppm
[5] = test system: heterotrophic bacteria (HBC) in biofilm and planktonic phases
[6] = test system: Enterococcus faecium ATCC 6569
[7] = test system: dermal lesions both contaminated and infected with gram negative and gram positive bacteria
[8] = test system: Rhinovirus R37 ATCC VR-1147, Strain 151-1
[9] = test system: Poliovirus type 2 ATCC VR-1002, Strain Lansing
[10] = test system: Herpes simplex type I ATCC VR-733, Strain F(1)
[11] = test system: Listeria monocytogenes ATCC 19111; conditions: 30 ppm
[12] = test system: Pseudomonas aeruginosa ATCC 15422
[13] = test system: HIV type1, Strain HTLV = IIIB
[14] = test system: Trichophyton Mentagrophytes ATCC 9533; conditions: 30 ppm
total bacteria present = conditions: approximately 5 ppm for 5 seconds, drip dry 10 seconds, rinse in 0.1 ppm for 5 seconds; fruits, vegetables, fish and shrimp
[15] = test system: Legionella in biofilm and planktonic samples
[16] = test system: Staphylococcus aureus (MRSA) ATCC 700698; conditions: 30 ppm
[17] = test system: Influenza A ATCC VR-544, Hong Kong Strain
[18] = test system: Salmonella cholerasuis ATCC 10708
[19] = test system: listeria monocytogenes ATCC 11543
[20] = equine, observed repeatedly during the study

## silver dihydrogen citrate
[1]
  KILL TIME: 30-seconds
  effectiveness as hard surface disinfectant with direct food contact: effective
[2]
  mortality in shrimp raising tanks: decreasing
[2]; shrimp raising tanks
  pathogenic bacterial populations, biofilms: significantly reducing
[3]
  KILL TIME: 2-minute
[4]
  KILL TIME: 15-seconds
E. coli ATCC 11229
  effectiveness as hard surface disinfectant with direct food contact: effective
[5]
  reduction of heterotrophic bacteria: did not significantly reduce
[6]
  effectiveness as hard surface disinfectant with direct food contact: effective
L. pneumophila
  result of ASTM E645-97 test: passed
[7]; equine
  efficacy for irrigating deep wounds and abscesses: very efficacious
  granulation / fibrosis: promote healthy granulation without excessive fibrosis
[7]; [20]
  healing time: Decreased healing time
  scar formation: reduction in scar formation
[7]; equine, wet dressings or spray
  performance on dermal lesions compared to available disinfectant products on the market: superior performance
[7]; flushed with the disinfectant
  healing and draining of deep wounds closed with drains: rapid healing time and reduced draining
[7]; preliminary results
  uterine flush for bacterial and/or fungal/yeast infection: very promising
[8]
  KILL TIME: 10-minute
  effectiveness as hard surface disinfectant with direct food contact: effective
[9]
  KILL TIME: 10-minute
  effectiveness as hard surface disinfectant with direct food contact: effective
[10]
  KILL TIME: 1-minute
  effectiveness as hard surface disinfectant with direct food contact: effective
[11]
  KILL TIME: 30-seconds
E. coli 0157 ATCC 43888
  KILL TIME: 2-minute
  effectiveness as hard surface disinfectant with direct food contact: effective
[12]
  KILL TIME: 30-seconds
  effectiveness as hard surface disinfectant with direct food contact: effective
[13]
  KILL TIME: 30-second
  effectiveness as hard surface disinfectant with direct food contact: effective
[14]
  exposure after which the fungus is killed: 10 min
Total bacteria present
  total bacteria present eliminated: 99.99%
[15]
  killing of Legionella (in words): killed Legionella
[16]
  KILL TIME: 2-minute
[17]
  KILL TIME: 10-minute
  effectiveness as hard surface disinfectant with direct food contact: effective
[18]
  KILL TIME: 30-seconds
  effectiveness as hard surface disinfectant with direct food contact: effective
[19]
  effectiveness as hard surface disinfectant with direct food contact: effective
SARS
  effectiveness as hard surface disinfectant with direct food contact: will be effective
